Test results from US9550740B2, “Antimicrobial compounds” (Dow Global Technologies LLC, priority 2012, dated 2017).

How the values were obtained:
Assay type in all cases: cell-based
[1] = system: Thermus thermophilus (ATCC 27634); assay: Biocidal efficacy at elevated temperature; settings: for log kill of treated bacterial populations relative to an untreated control: 50 ppm glutaraldehyde equivalent
Method: Compound 1 is dissolved in DMSO to yield a 200 mM solution such that the glutaraldehyde-equivalent concentration of the stock solution is 20,000 ppm. The bacterial strain Thermus thermophilus (ATCC 27634) is maintained at 70° C. After 24-48 hours of growth, 10 mL of bacterial culture is harvested by spinning in a Beckman-Coulter benchtop centrifuge at 3000 rpm for 15 min. The cell pellet is resuspended in 100 mL of phosphate-buffered saline (PBS) to give approximately 5×10^5 CFU/mL and aliquoted into 10 mL portions in glass test tubes fitted with screw caps. Samples are equilibrated to 37, 55, or 70° C. for 30 min and then treated with glutaraldehyde or Compound 1 at 50 ppm glutaraldehyde equivalent. The treated samples are returned to their respective equilibration temperatures for 4 h and then enumerated for surviving bacteria. After 24 h, the process is repeated by adding fresh grown bacteria to the samples to re-challenge the biocide. The samples are again enumerated after 4 h. Results are reported in terms of log kill of treated bacterial populations relative to an untreated control at each temperature. For values listed as “>x,” actual kill may have been higher but could not be detected by this assay.

[2] = system: sulfate reducing bacteria (SRB), Desulfovibrio longus; assay: Biocidal efficacy at room temperature, sulfate reducing bacteria (SRB); settings: for minimum dose needed to achieve 3-log reduction in bacteria levels: SRB, anaerobic PBS, ppm glutaraldehyde equivalent, tested 200 to 12 ppm; for activity against SRB (in words): compared with glutaraldehyde
Method: (§1) Assay for Biocidal Efficacy at Room Temperature: Glutaraldehyde and Compounds 1 and 4 are tested for biocidal activity against a pool of aerobic organisms at room temperature and against sulfate reducing bacteria (SRB) at room temperature. Tests are performed as follows:
(§2) a. Stock preparation. Glutaraldehyde (50% in water) and Compounds 1 and 4 are each dissolved in DMSO to a concentration of 200 mM, which is equivalent to 20,000 ppm of free glutaraldehyde.
(§3) b. Aerobic Bacteria—a mixed pool of 6 bacterial species at approximately 5×10^6 CFU/mL in phosphate buffered saline is distributed into a 96-well plate. Each well receives an independent chemical treatment of the tested compounds at concentrations ranging from 200 ppm to 12 ppm glutaraldehyde. A control treatment of DMSO alone is also included. Each condition is tested in triplicate. After set periods of incubation (1, 4, and 24 h), the number of surviving cells in each well are enumerated by dilution to extinction in a medium containing resazurin dye as an indicator. c. Sulfate Reducing Bacteria (SRB)—SRB testing is performed as for the aerobic bacteria with the following modifications: the species Desulfovibrio longus is tested in anaerobic PBS and the enumeration of surviving cells is performed in a medium containing soluble iron as an indicator. d. Results: Values indicate minimum the dose needed (in ppm) to achieve 3-log reduction in bacteria levels. “n/a” indicates the threshold is not met at any of the tested doses. “N.D.” indicates no data available.

[3] = system: pool of aerobic organisms (mixed pool of 6 bacterial species); assay: Biocidal efficacy at room temperature, aerobic bacteria; settings: for minimum dose needed to achieve 3-log reduction in bacteria levels: aerobic bacteria, ppm glutaraldehyde equivalent, tested 200 to 12 ppm
Method: as §1, §2, §3

[4] = 37 C., 24 hr (re-challenge with fresh bacteria, enumerated after 4 h)
[5] = 55 C., 24 hr (re-challenge with fresh bacteria, enumerated after 4 h)
[6] = 70 C., 24 hr (re-challenge with fresh bacteria, enumerated after 4 h)

SMILES | log kill of treated bacterial populations relative to an untreated control ([1]; 37 C., 4 hr) | log kill of treated bacterial populations relative to an untreated control [1, 4] | log kill of treated bacterial populations relative to an untreated control ([1]; 55 C., 4 hr) | log kill of treated bacterial populations relative to an untreated control [1, 5] | log kill of treated bacterial populations relative to an untreated control ([1]; 70 C., 4 hr) | log kill of treated bacterial populations relative to an untreated control [1, 6] | activity compared with glutaraldehyde (in words) ([1]; at each temperature tested (37, 55, 70 C.)) | minimum dose needed to achieve 3-log reduction in bacteria levels ([2]; 1 hour incubation) [ppm] | minimum dose needed to achieve 3-log reduction in bacteria levels ([2]; 4 hours incubation) [ppm] | activity against SRB (in words) [2] | biocidal activity against aerobic bacteria (in words) [3] | minimum dose needed to achieve 3-log reduction in bacteria levels ([3]; 1 hour incubation) [ppm] | minimum dose needed to achieve 3-log reduction in bacteria levels ([3]; 4 hours incubation) [ppm] | minimum dose needed to achieve 3-log reduction in bacteria levels ([3]; 24 hours incubation) [ppm] | minimum dose needed to achieve 3-log reduction in bacteria levels ([2]; 24 hours incubation) [ppm]
CN1CCC(c2ccccc2)OC1CCCC1OC(c2ccccc2)CCN1C (centres unmarked) [Compound 1, 1,3-bis(3-methyl-6-phenyl-1,3-oxazinan-2-yl)propane] | >3 | >4 | >3 | >3 | >4 | >4 | equivalent activity to glutaraldehyde | 133 | 133 | some activity | significant biocidal activity | 59 | 26 | 40 | –
CN1CCOC1CCCC1OCCN1C (centres unmarked) [Compound 4, 1,3-bis(3-methyloxazolidin-2-yl)propane] | – | – | – | – | – | – | – | 200 | 133 | some activity | limited activity | – | 200 | 200 | –
O=CCCCC=O [glut, Glutaraldehyde, reference compound] | >3 | >4 | >3 | >3 | >4 | >4 | – | 89 | 18 | – | – | 26 | 26 | 26 | <12
